Results: paper PMC11857971, “^11C-Labeling of a Flavanone Extracted from a South American Native Species for Evaluation of Its Interaction with GSK-3β” (Molecules, 2025)

Target: T1, GSK-3β (Homo sapiens, UniProt P49841)
T1 construct: gene GSK3B
Assay: Kinase-Glo luminescent kinase assay, recombinant human GSK-3β, dose-response
Type: biochemical

T1 sequence (P49841 whole entry): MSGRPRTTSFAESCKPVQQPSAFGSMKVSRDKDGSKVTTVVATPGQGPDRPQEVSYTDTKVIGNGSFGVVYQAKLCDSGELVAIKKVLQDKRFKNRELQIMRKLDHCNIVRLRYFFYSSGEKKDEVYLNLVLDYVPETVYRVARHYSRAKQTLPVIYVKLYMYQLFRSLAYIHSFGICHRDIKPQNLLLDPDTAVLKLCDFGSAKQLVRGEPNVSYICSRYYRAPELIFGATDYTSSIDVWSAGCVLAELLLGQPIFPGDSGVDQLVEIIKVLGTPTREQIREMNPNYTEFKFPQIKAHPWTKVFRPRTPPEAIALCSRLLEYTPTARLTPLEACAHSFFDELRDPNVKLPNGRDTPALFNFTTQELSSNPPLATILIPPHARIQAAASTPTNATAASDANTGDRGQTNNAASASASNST

Row | IC50 | Compound
1 | 16.1 ± 0.6 µM | COc1cc(O)c2c(c1CC=C(C)C)O[C@H](c1ccccc1)CC2=O [FLA, (S)-5-hidroxy-7-methoxy-8-(3-methylbut-2-en-1-yl)-2-phenylcroman-4-one]
2 | 44.8 ± 4 µM | CC(C)=CCc1c(O)cc(O)c2c1O[C@H](c1ccccc1)CC2=O [glabranin, (S)-5,7-dihydroxy-8-(3-methylbut-2-en-1-yl)-2-phenylchroman-4-one]
